From US9938269B2, “Inhibitor compounds of phosphodiesterase type 10A” (ABBVIE INC., priority 2011, dated 2018)
Structures can show the parent of a compound that is named as a salt.

Target: T1, PDE10A (human) (Homo sapiens, UniProt Q9Y233)
T1 construct: purchased BPS Bioscience
Assay: Measurement of PDE activity (HTRF cAMP kit), human PDE10A
Type: biochemical
Conditions: PDE enzymatic reaction, substrate 20 nM for PDE10, 60 minutes at 29 C
Description: The recombinant PDE proteins are used in in vitro enzymatic reaction for measurement of PDE activity. These recombinant proteins, including PDE10A (human, rat and mouse PDE10) and isoforms of PDEs 1, 3, 4, and 5, were purchased from commercial vendor BPS Bioscience. The enzymatic activity of PDEs was determined by cAMP measurement kit from CisBio (IBA) using HTRF technology.
The PDE enzymatic reaction was carried out in assay buffer (20 mM Tris-HCl pH7.5, 10 mM MgCl2, 0.1% bovine serum albumin) containing enzyme and substrate. The PDE enzymes concentration ranged from 10 pM-250 pM, depending on each enzyme's specific activity. The substrate cyclic nucleotide (cAMP or cGMP) concentration used in the assay was 20 nM for PDE10, and 100 nM for other PDEs. The inhibitory effect of compound was determined by incubating various concentration of inhibitor in the enzymatic assay. Typically, compound was serial diluted in DMSO then further diluted in assay buffer. Next, the compound at varying concentration was mixed with PDE enzyme. The reaction was initiated by addition of cyclic nucleotide substrate, and incubated for 60 minutes at 29 C. The reaction was stopped by addition of lysis buffer from assay kit. The cAMP-d2 and anti-cAMP cryptate in the lysis buffer detected the level of cAMP left from the PDE hydrolysis reaction. The PDE activity is reversely correlated with the amount of cAMP left in the reaction and can be converted to the percent activity of an uninhibited control (100%). Thus, IC50 value of inhibitor can be obtained by plotting inhibitor concentration against PDE activity at that concentration.

T1 sequence (Q9Y233 whole entry): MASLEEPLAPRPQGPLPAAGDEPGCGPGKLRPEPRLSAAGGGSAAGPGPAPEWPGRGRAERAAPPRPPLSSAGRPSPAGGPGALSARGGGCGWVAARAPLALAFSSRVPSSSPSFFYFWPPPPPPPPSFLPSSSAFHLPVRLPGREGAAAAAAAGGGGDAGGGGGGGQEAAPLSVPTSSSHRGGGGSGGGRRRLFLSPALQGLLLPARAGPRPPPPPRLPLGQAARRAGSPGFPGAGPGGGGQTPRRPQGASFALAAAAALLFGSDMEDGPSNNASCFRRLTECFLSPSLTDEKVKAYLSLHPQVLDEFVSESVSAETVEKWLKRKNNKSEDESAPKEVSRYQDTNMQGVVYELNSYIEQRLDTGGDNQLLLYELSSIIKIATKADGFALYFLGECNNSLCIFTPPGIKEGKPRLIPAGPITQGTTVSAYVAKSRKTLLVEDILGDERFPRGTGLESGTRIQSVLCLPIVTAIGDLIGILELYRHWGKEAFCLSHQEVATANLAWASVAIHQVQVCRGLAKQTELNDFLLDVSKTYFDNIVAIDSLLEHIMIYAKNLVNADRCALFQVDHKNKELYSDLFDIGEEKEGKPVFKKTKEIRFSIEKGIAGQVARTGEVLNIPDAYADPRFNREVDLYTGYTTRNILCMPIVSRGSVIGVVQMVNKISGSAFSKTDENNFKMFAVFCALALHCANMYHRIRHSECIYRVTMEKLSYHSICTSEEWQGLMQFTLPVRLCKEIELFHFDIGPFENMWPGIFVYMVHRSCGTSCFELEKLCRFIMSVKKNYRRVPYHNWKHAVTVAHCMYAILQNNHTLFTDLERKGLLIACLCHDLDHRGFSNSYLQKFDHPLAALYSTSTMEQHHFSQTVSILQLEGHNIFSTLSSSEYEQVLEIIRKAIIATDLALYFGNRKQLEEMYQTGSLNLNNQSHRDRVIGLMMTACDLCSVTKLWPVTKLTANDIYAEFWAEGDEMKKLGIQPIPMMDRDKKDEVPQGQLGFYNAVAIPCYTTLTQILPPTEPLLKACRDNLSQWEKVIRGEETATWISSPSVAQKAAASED

IC50	Structure (SMILES)
100 to 200 nM	O=C1c2c(cccc2-c2ccc(F)cc2F)CN1CCc1ccc2ccccc2n1 [Example 45, 7-(2,4-Difluoro-phenyl)-2-(2-quinolin-2-yl-ethyl)-2,3-dihydro-isoindol-1-one]
< 100 nM	O=C1c2c(cccc2-c2ccoc2)CN1CCc1ccc2ccccc2n1 [Example 46, 7-Furan-3-yl-2-(2-quinolin-2-yl-ethyl)-2,3-dihydro-isoindol-1-one]
200 to 500 nM	O=C1c2c(cccc2-c2cccc(F)c2F)CN1CCc1ccc2ccccc2n1 [Example 50, 7-(2,3-Difluoro-phenyl)-2-(2-quinolin-2-yl-ethyl)-2,3-dihydro-isoindol-1-one]
200 to 500 nM	O=C1c2c(cccc2-c2cc(F)ccc2F)CN1CCc1ccc2ccccc2n1 [Example 51, 7-(2,5-Difluoro-phenyl)-2-(2-quinolin-2-yl-ethyl)-2,3-dihydro-isoindol-1-one]
200 to 500 nM	O=C1c2c(cccc2-c2ccc3c(c2)CCO3)CN1CCc1ccc2ccccc2n1 [Example 56, 7-(2,3-Dihydro-benzofuran-5-yl)-2-(2-quinolin-2-yl-ethyl)-2,3-dihydro-isoindol-1-one]
< 100 nM	Cc1cc(-c2cccc3c2C(=O)N(CCc2ccc4ccccc4n2)C3)ccn1 [Example 65, 7-(2-Methyl-pyridin-4-yl)-2-(2-quinolin-2-yl-ethyl)-2,3-dihydro-isoindol-1-one]
200 to 500 nM	Cc1cscc1-c1cccc2c1C(=O)N(CCc1ccc3ccccc3n1)C2 [Example 73, 7-(4-Methyl-thiophen-3-yl)-2-(2-quinolin-2-yl-ethyl)-2,3-dihydro-isoindol-1-one]
< 100 nM	O=C1c2c(cccc2-c2ccc3ncccc3c2)CN1CCc1ccc2ccccc2n1 [Example 75, 7-Quinolin-6-yl-2-(2-quinolin-2-yl-ethyl)-2,3-dihydro-isoindol-1-one]
< 100 nM	O=C1c2c(cccc2-c2cnc[nH]2)CN1CCc1ccc2ccccc2n1 [Example 84, 7-(3H-Imidazol-4-yl)-2-(2-quinolin-2-yl-ethyl)-2,3-dihydro-isoindol-1-one]
200 to 500 nM	O=C1c2c(cccc2-c2ccc(F)cn2)CN1CCc1ccc2ccccc2n1 [Example 88, 7-(5-Fluoro-pyridin-2-yl)-2-(2-quinolin-2-yl-ethyl)-2,3-dihydro-isoindol-1-one]
200 to 500 nM	Cn1cncc1-c1cccc2c1C(=O)N(CCc1ccc3ccccc3n1)C2 [Example 94, 7-(3-Methyl-3H-imidazol-4-yl)-2-(2-quinolin-2-yl-ethyl)-2,3-dihydro-isoindol-1-one]
100 to 200 nM	O=C1c2c(cccc2OCc2cccnc2)CN1CCc1ccc2ccccc2n1 [Example 127, 7-(Pyridin-3-ylmethoxy)-2-(2-quinolin-2-yl-ethyl)-2,3-dihydro-isoindol-1-one]
100 to 200 nM	COc1cnccc1-c1cccc2c1C(=O)N(CCc1ccc3ccccc3n1)C2 [Example 169, 7-(3-Methoxy-pyridin-4-yl)-2-(2-quinolin-2-yl-ethyl)-2,3-dihydro-isoindol-1-one trifluoroacetate]
< 100 nM	O=C1c2c(cccc2-c2ccncc2Cl)CN1CCc1ccc2ccccc2n1 [Example 170, 7-(3-Chloro-pyridin-4-yl)-2-(2-quinolin-2-yl-ethyl)-2,3-dihydro-isoindol-1-one trifluoroacetate]
100 to 200 nM	O=C1c2c(cccc2-c2ccnc(Cl)c2)CN1CCc1ccc2ccccc2n1 [Example 171, 7-(2-Chloro-pyridin-4-yl)-2-(2-quinolin-2-yl-ethyl)-2,3-dihydro-isoindol-1-one trifluoroacetate]
< 100 nM	O=C1c2cccc(-c3ccncc3)c2CN1CCc1ccc2ccccc2n1 [Example 181, 4-Pyridin-4-yl-2-(2-quinolin-2-yl-ethyl)-2,3-dihydro-isoindol-1-one]
100 to 200 nM	COc1ccc(-c2ccc(OC)c3c2C(=O)N(CCc2ccc4ccccc4n2)C3)cc1 [Example 186, 4-Methoxy-7-(4-methoxy-phenyl)-2-(2-quinolin-2-yl-ethyl)-2,3-dihydro-isoindol-1-one]

More lines, now with the values behind:

Structure (SMILES)	IC50
CN(C)c1cccc(-c2cccc3c2C(=O)N(CCc2ccc4ccccc4n2)C3)c1 [Example 43, 7-(3-Dimethylamino-phenyl)-2-(2-quinolin-2-yl-ethyl)-2,3-dihydro-isoindol-1-one]	200 to 500 nM
O=C1c2c(cccc2-c2cc[nH]n2)CN1CCc1ccc2ccccc2n1 [Example 53, 7-(1H-Pyrazol-3-yl)-2-(2-quinolin-2-yl-ethyl)-2,3-dihydro-isoindol-1-one]	100 to 200 nM
COc1ncc(-c2cccc3c2C(=O)N(CCc2ccc4ccccc4n2)C3)cn1 [Example 61, 7-(2-Methoxy-pyrimidin-5-yl)-2-(2-quinolin-2-yl-ethyl)-2,3-dihydro-isoindol-1-one]	100 to 200 nM
O=C1c2c(cccc2-c2ccc3cc[nH]c3c2)CN1CCc1ccc2ccccc2n1 [Example 64, 7-(1H-Indol-6-yl)-2-(2-quinolin-2-yl-ethyl)-2,3-dihydro-isoindol-1-one]	< 100 nM
Cn1cc(-c2cccc3c2C(=O)N(CCc2ccc4ccccc4n2)C3)cn1 [Example 70, 7-(1-Methyl-1H-pyrazol-4-yl)-2-(2-quinolin-2-yl-ethyl)-2,3-dihydro-isoindol-1-one]	100 to 200 nM
O=C1c2c(cccc2-c2ccc3occc3c2)CN1CCc1ccc2ccccc2n1 [Example 72, 7-Benzofuran-5-yl-2-(2-quinolin-2-yl-ethyl)-2,3-dihydro-isoindol-1-one]	200 to 500 nM
Cn1nccc1-c1cccc2c1C(=O)N(CCc1ccc3ccccc3n1)C2 [Example 74, 7-(2-Methyl-2H-pyrazol-3-yl)-2-(2-quinolin-2-yl-ethyl)-2,3-dihydro-isoindol-1-one]	< 100 nM
O=C1c2c(cccc2-c2cncc(F)c2)CN1CCc1ccc2ccccc2n1 [Example 77, 7-(5-Fluoro-pyridin-3-yl)-2-(2-quinolin-2-yl-ethyl)-2,3-dihydro-isoindol-1-one]	< 100 nM
O=C1c2c(cccc2-c2cn[nH]c2)CN1CCc1ccc2ccccc2n1 [Example 78, 7-(1H-Pyrazol-4-yl)-2-(2-quinolin-2-yl-ethyl)-2,3-dihydro-isoindol-1-one]	< 100 nM
O=C1c2c(cccc2-c2nccs2)CN1CCc1ccc2ccccc2n1 [Example 82, 2-(2-Quinolin-2-yl-ethyl)-7-thiazol-2-yl-2,3-dihydro-isoindol-1-one]	200 to 500 nM
O=C1c2c(cccc2-c2ccc3[nH]ncc3c2)CN1CCc1ccc2ccccc2n1 [Example 93, 7-(1H-Indazol-5-yl)-2-(2-quinolin-2-yl-ethyl)-2,3-dihydro-isoindol-1-one]	200 to 500 nM
O=C1c2c(cccc2-c2ccc3cn[nH]c3c2)CN1CCc1ccc2ccccc2n1 [Example 97, 7-(1H-Indazol-6-yl)-2-(2-quinolin-2-yl-ethyl)-2,3-dihydro-isoindol-1-one]	< 100 nM
CN1CCC(N2CCN(c3cccc4c3C(=O)N(CCc3ccc5ccccc5n3)C4)CC2)CC1 [Example 105, 7-[4-(1-Methyl-piperidin-4-yl)-piperazin-1-yl]-2-(2-quinolin-2-yl-ethyl)-2,3-dihydro-isoindol-1-one]	200 to 500 nM
O=C1c2c(cccc2N2CCOCC2)CN1CCc1cc(Cl)c2ccccc2n1 [Example 117, 2-[2-(4-Chloro-quinolin-2-yl)-ethyl]-7-morpholin-4-yl-2,3-dihydro-isoindol-1-one trifluoroacetate]	100 to 200 nM
O=C1c2c(cccc2NCc2ccncc2)CN1CCc1ccc2ccccc2n1 [Example 125, 7-[(Pyridin-4-ylmethyl)-amino]-2-(2-quinolin-2-yl-ethyl)-2,3-dihydro-isoindol-1-one]	200 to 500 nM
O=C1c2c(cccc2NCc2cccnc2)CN1CCc1ccc2ccccc2n1 [Example 126, 7-[(Pyridin-3-ylmethyl)-amino]-2-(2-quinolin-2-yl-ethyl)-2,3-dihydro-isoindol-1-one]	200 to 500 nM
O=C1c2cccc(N3CCNCC3)c2CN1CCc1ccc2ccccc2n1 [Example 141, 4-piperazin-1-yl-2-(2-quinolin-2-yl-ethyl)-2,3-dihydro-isoindol-1-one]	200 to 500 nM
O=C1c2c(cccc2N2CCC(F)(F)CC2)CN1CCc1ccc2ccccc2n1 [Example 143, 7-(4,4-Difluoro-piperidin-1-yl)-2-(2-quinolin-2-yl-ethyl)-2,3-dihydro-isoindol-1-one]	< 100 nM
O=C1c2c(cccc2N2CCSCC2)CN1CCc1ccc2ccccc2n1 [Example 150, 2-(2-Quinolin-2-yl-ethyl)-7-thiomorpholin-4-yl-2,3-dihydro-isoindol-1-one]	< 100 nM
O=C1c2c(cccc2-c2ccncc2F)CN1CCc1ccc2ccccc2n1 [Example 173, 7-(3-Fluoro-pyridin-4-yl)-2-(2-quinolin-2-yl-ethyl)-2,3-dihydro-isoindol-1-one]	< 100 nM
COc1cc(-c2cccc3c2C(=O)N(CCc2ccc4ccccc4n2)C3)ccn1 [Example 182, 7-(2-Methoxy-pyridin-4-yl)-2-(2-quinolin-2-yl-ethyl)-2,3-dihydro-isoindol-1-one trifluoroacetate]	200 to 500 nM
